Values belong to the molecule of their own block, whether it stands above or below them. The source made the active and inactive calls. The rule behind the calls is not given here.
Tests used:
[1] = test system: L02; test: Cytotoxicity against human L02 cells at 100 uM after 72 hrs by MTT assay; type: cell-based; conditions: l02, 72 h
[2] = test system: HEK293; test: Cytotoxicity against HEK293 cells at 100 uM after 72 hrs by MTT assay; type: cell-based; conditions: human, hek293, 72 h
[3] = test system: HUVEC; test: Cytotoxicity against HUVEC cells at 100 uM after 72 hrs by MTT assay; type: cell-based; conditions: human
[4] = test system: Hep 3B2; test: Cytotoxicity against human Hep3B cells at 100 uM after 72 hrs by MTT assay; type: cell-based; conditions: hep 3b2, 72 h
[5] = target: Egl nine homolog 1 (Homo sapiens) (UniProt Q9GZT9); test: Photoactivated inhibition of PHD2 (181 to 426 residues) (unknown origin) at 1.23 uM using FITC-HIF1alpha (556 to 574 residues) as substrate incubated for 60 mins using laser irradiated compound at 405 nm light for >20 mins by fluorescence polarization assay
[6] = Drug metabolism in pH 7.4 PBS assessed as light-mediated formation of N-(5-(1-(2-(4-chlorophenoxy)ethyl)-1H-1,2,3-triazol-4-yl)-3-hydroxypicolinoyl)glycine at 50 uM followed by laser irradiation by UV-Visible spectroscopy
[7] = Drug metabolism in pH 7.4 PBS assessed as light-mediated formation of N-(5-(1-(2-(4-chlorophenoxy)ethyl)-1H-1,2,3-triazol-4-yl)-3-hydroxypicolinoyl)glycine at 50 uM followed by laser irradiation for 30 secs to 20 mins by UV-Visible spectroscopy
[8] = Drug metabolism in pH 7.4 PBS assessed as light-mediated formation of 7-(diethylamino)-4-(hydroxymethyl)-2H-chromen-2-one at 50 uM followed by laser irradiation by UV-Visible spectroscopy
[9] = Drug metabolism in pH 7.4 PBS assessed as light-mediated formation of N-(5-(1-(2-(4-chlorophenoxy)ethyl)-1H-1,2,3-triazol-4-yl)-3-hydroxypicolinoyl)glycine at 50 uM followed by laser irradiation by HPLC analysis
[10] = Drug metabolism in pH 7.4 PBS assessed as light-mediated formation of 7-(diethylamino)-4-(hydroxymethyl)-2H-chromen-2-one at 50 uM followed by laser irradiation by HPLC analysis
[11] = Drug metabolism in pH 7.4 PBS assessed as light-mediated formation of N-(5-(1-(2-(4-chlorophenoxy)ethyl)-1H-1,2,3-triazol-4-yl)-3-hydroxypicolinoyl)glycine at 50 uM followed by laser irradiation for 30 secs by HPLC analysis
[12] = Drug metabolism in pH 7.4 PBS assessed as light-mediated formation of N-(5-(1-(2-(4-chlorophenoxy)ethyl)-1H-1,2,3-triazol-4-yl)-3-hydroxypicolinoyl)glycine at 50 uM followed by laser irradiation for 2 mins by HPLC analysis
[13] = Drug metabolism in pH 7.4 PBS assessed as light-mediated formation of N-(5-(1-(2-(4-chlorophenoxy)ethyl)-1H-1,2,3-triazol-4-yl)-3-hydroxypicolinoyl)glycine at 50 uM followed by laser irradiation for 5 mins by HPLC analysis
[14] = Drug metabolism in pH 7.4 PBS assessed as light-mediated formation of N-(5-(1-(2-(4-chlorophenoxy)ethyl)-1H-1,2,3-triazol-4-yl)-3-hydroxypicolinoyl)glycine at 50 uM followed by laser irradiation for 9 mins by HPLC analysis
[15] = Drug metabolism in pH 7.4 PBS assessed as light-mediated formation of N-(5-(1-(2-(4-chlorophenoxy)ethyl)-1H-1,2,3-triazol-4-yl)-3-hydroxypicolinoyl)glycine at 50 uM followed by laser irradiation for 15 mins by HPLC analysis
[16] = Drug metabolism in pH 7.4 PBS assessed as light-mediated formation of N-(5-(1-(2-(4-chlorophenoxy)ethyl)-1H-1,2,3-triazol-4-yl)-3-hydroxypicolinoyl)glycine at 50 uM followed by laser irradiation for 20 mins by HPLC analysis
[17] = Chemical stability in pH 7.4 PBS buffer at 50 uM measured over 24 hrs by HPLC analysis; type: physicochemical; conditions: pH 7.4, 24 h
[18] = Stability in human plasma assessed as compound remaining at […] measured at 8 hrs by HPLC analysis; type: ADME, cell-free; conditions: read-out: Stability
[19] = Stability in rat plasma assessed as compound remaining at […] measured at 8 hrs by HPLC analysis; type: ADME, cell-free; conditions: read-out: Stability
[20] = target: Egl nine homolog 1 (Homo sapiens) (UniProt Q9GZT9); test: Photoactivated inhibition of PHD2 (181 to 426 residues) (unknown origin) using FITC-HIF1alpha (556 to 574 residues) as substrate incubated for 60 mins using laser irradiated compound at 405 nm light for 30 secs to 30 mins by fluorescence polarization assay
[21] = target: Egl nine homolog 1 (Homo sapiens) (UniProt Q9GZT9); test: Photoactivated inhibition of PHD2 (181 to 426 residues) (unknown origin) at 1.23 uM using FITC-HIF1alpha (556 to 574 residues) as substrate incubated for 60 mins using laser irradiated compound at 405 nm light for 20 mins by fluorescence polarization assay relative to control
[22] = target: Egl nine homolog 1 (Homo sapiens) (UniProt Q9GZT9); test: Photoactivated inhibition of PHD2 in HEK293 cells harboring firefly luciferase gene and renilla luciferase gene assessed as stabilization of HIF-alpha at 100 uM using […] under light irradiation for 1 to 30 mins and measured after 24 hrs by chemiluminescence assay; type: cell-based
[23] = target: Egl nine homolog 1 (Homo sapiens) (UniProt Q9GZT9); test: Photoactivated inhibition of PHD2 in HEK293 cells harboring firefly luciferase gene and renilla luciferase gene assessed as spatiotemporal dependent accumulation of hypoxia response element level at 100 uM using […] under laser light irradiation after 24 hrs by chemiluminescence assay; type: cell-based
[24] = target: Egl nine homolog 1 (Homo sapiens) (UniProt Q9GZT9); test: Photoactivated inhibition of PHD2 in human Hep3B cells assessed as increase in HIF-1alpha level in presence of light irradiation for 1 to 20 mins measured after 10 hrs by Western blot analysis; type: cell-based
[25] = target: Egl nine homolog 1 (Homo sapiens) (UniProt Q9GZT9); test: Photoactivated inhibition of PHD2 in human Hep3B cells assessed as increase in HIF-2alpha level in presence of light irradiation for 1 to 20 mins measured after 10 hrs by Western blot analysis; type: cell-based
[26] = target: Egl nine homolog 1 (Homo sapiens) (UniProt Q9GZT9); test: Photoactivated inhibition of PHD2 in human Hep3B cells assessed as increase in HIF-2alpha level in nucleus in presence of light irradiation for 20 mins measured after 10 hrs by Western blot analysis; type: cell-based
[27] = target: Egl nine homolog 1 (Homo sapiens) (UniProt Q9GZT9); test: Photoactivated inhibition of PHD2 in human Hep3B cells assessed as increase in HIF-1alpha level in nucleus in presence of light irradiation for 20 mins measured after 10 hrs by Western blot analysis; type: cell-based
[28] = target: Egl nine homolog 1 (Homo sapiens) (UniProt Q9GZT9); test: Photoactivated inhibition of PHD2 in human Hep3B cells assessed as stabilization of HIFalpha by measuring upregulation of EPO gene expression at 50 uM in presence of light irradiation for 1 to 30 mins by qRT-PCR analysis; type: cell-based
[29] = target: Egl nine homolog 1 (Homo sapiens) (UniProt Q9GZT9); test: Photoactivated inhibition of PHD2 in human Hep3B cells assessed as stabilization of HIFalpha by measuring upregulation of EPO gene expression at 50 uM in presence of light irradiation for >20 mins by qRT-PCR analysis; type: cell-based
[30] = Drug metabolism in pH 7.4 PBS assessed as light-mediated formation of N-(5-(1-(2-(4-chlorophenoxy)ethyl)-1H-1,2,3-triazol-4-yl)-3-hydroxypicolinoyl)glycine at 50 uM followed by laser irradiation for 120 mins by HPLC analysis
[31] = target: Egl nine homolog 1 (Homo sapiens) (UniProt Q9GZT9); test: Photoactivated inhibition of PHD2 (181 to 426 residues) (unknown origin) at 1.23 uM using FITC-HIF1alpha (556 to 574 residues) as substrate incubated for 60 mins using laser irradiated compound at 405 nm light by fluorescence polarization assay

Egl nine homolog 1 (Homo sapiens), sequence (Q9GZT9 2-426 limits assumed): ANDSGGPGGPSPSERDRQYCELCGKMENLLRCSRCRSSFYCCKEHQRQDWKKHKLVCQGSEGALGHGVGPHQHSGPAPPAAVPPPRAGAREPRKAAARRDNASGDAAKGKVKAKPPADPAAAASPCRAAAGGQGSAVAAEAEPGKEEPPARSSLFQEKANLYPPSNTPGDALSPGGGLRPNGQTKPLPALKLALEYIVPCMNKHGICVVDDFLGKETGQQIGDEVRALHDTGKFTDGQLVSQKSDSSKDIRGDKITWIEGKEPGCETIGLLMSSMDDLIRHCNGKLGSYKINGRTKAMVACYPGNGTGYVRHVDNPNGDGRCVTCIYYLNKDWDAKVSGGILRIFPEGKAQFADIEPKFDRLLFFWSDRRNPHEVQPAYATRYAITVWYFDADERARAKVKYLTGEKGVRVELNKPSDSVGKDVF

SMILES: O=C(O)CNC(=O)c1ncc(-c2cn(CCOc3ccc(Cl)cc3)nn2)cc1O
Activity [1]: Non-Toxic
Activity [2]: Non-Toxic
Activity [3]: Non-Toxic
Activity [4]: Non-Toxic

inhibition [5]: Active
Stability [17]: Stable
remaining at 8 h [18]: > 90%
remaining at 8 h [19]: > 90%
inhibition [20]: Active
inhibition [21]: 95.2%
inhibition [22]: Active
inhibition [23]: Active
inhibition [24]: Active
inhibition [25]: Active
inhibition [26]: Active
inhibition [27]: Active
inhibition [28]: Active
inhibition [29]: Active
SMILES: CCN(CC)c1ccc2c(COC(=O)CNC(=O)c3ncc(-c4cn(CCOc5ccc(Cl)cc5)nn4)cc3O)cc(=O)oc2c1
Drug metabolism [6]: Metabolite detected
Drug metabolism [7]: Metabolite detected
Drug metabolism [8]: Metabolite detected
Drug metabolism [9]: Metabolite detected
Drug metabolism [10]: Metabolite detected
Drug metabolism [11]: 5%
Drug metabolism [12]: 16%
Drug metabolism [13]: 49%
Drug metabolism [14]: 68%
Drug metabolism [15]: 82%
Drug metabolism [16]: 100%
Activity [1]: Non-Toxic
Activity [2]: Non-Toxic
Activity [3]: Non-Toxic
Activity [4]: Non-Toxic

inhibition [31]: inactive
SMILES: CCN(CC)c1ccc2c(COc3cc(-c4cn(CCOc5ccc(Cl)cc5)nn4)cnc3C(=O)NCC(=O)O)cc(=O)oc2c1
Drug metabolism [30]: Metabolite not detected
